Laboratory results published in PubChem BioAssay (NCI).
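Exposure lasted 48 hours, with cells grown in 96-well plates and compounds tested at five concentrations. TGI: concentration producing complete growth inhibition.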

How the values were obtained:
Test in all cases: growth of human tumour cells (NCI), 48 h
MOLT-4 leukemia = tested on: MOLT-4 leukemia
OVCAR-3 ovarian = tested on: OVCAR-3 ovarian
SF-295 CNS = tested on: SF-295 CNS
HCC-2998 colon = tested on: HCC-2998 colon
LOX IMVI melanoma = tested on: LOX IMVI melanoma
ACHN renal = tested on: ACHN renal
OVCAR-5 ovarian = tested on: OVCAR-5 ovarian
EKVX NSCLC = tested on: EKVX NSCLC
DMS 273 small cell lung = tested on: DMS 273 small cell lung
KM12 colon = tested on: KM12 colon
HOP-92 NSCLC = tested on: HOP-92 NSCLC
OVCAR-4 ovarian = tested on: OVCAR-4 ovarian
CCRF-CEM leukemia = tested on: CCRF-CEM leukemia
SNB-75 CNS = tested on: SNB-75 CNS
LXFL 529 NSCLC = tested on: LXFL 529 NSCLC
HT29 colon = tested on: HT29 colon
SK-MEL-28 melanoma = tested on: SK-MEL-28 melanoma
SK-MEL-5 melanoma = tested on: SK-MEL-5 melanoma
M14 melanoma = tested on: M14 melanoma
COLO 205 colon = tested on: COLO 205 colon
SF-539 CNS = tested on: SF-539 CNS
UO-31 renal = tested on: UO-31 renal
HCT-116 colon = tested on: HCT-116 colon
SR leukemia = tested on: SR leukemia
SK-OV-3 ovarian = tested on: SK-OV-3 ovarian
OVCAR-8 ovarian = tested on: OVCAR-8 ovarian
IGROV1 ovarian = tested on: IGROV1 ovarian
RXF 393 renal = tested on: RXF 393 renal
XF 498 CNS = tested on: XF 498 CNS
CAKI-1 renal = tested on: CAKI-1 renal
HOP-62 NSCLC = tested on: HOP-62 NSCLC
SN12C renal = tested on: SN12C renal
SF-268 CNS = tested on: SF-268 CNS
K-562 leukemia = tested on: K-562 leukemia
786-0 renal = tested on: 786-0 renal
SW-620 colon = tested on: SW-620 colon
NCI-H460 lung = tested on: NCI-H460 lung
SK-MEL-2 melanoma = tested on: SK-MEL-2 melanoma
NCI-H23 lung = tested on: NCI-H23 lung
MALME-3M melanoma = tested on: MALME-3M melanoma
SNB-19 CNS = tested on: SNB-19 CNS
SNB-78 CNS = tested on: SNB-78 CNS
NCI-H522 lung = tested on: NCI-H522 lung
U251 CNS = tested on: U251 CNS
DMS 114 small cell lung = tested on: DMS 114 small cell lung
UACC-62 melanoma = tested on: UACC-62 melanoma
A549 NSCLC = tested on: A549 NSCLC
DLD-1 colon = tested on: DLD-1 colon
NCI-H226 lung = tested on: NCI-H226 lung
TK-10 renal = tested on: TK-10 renal
RPMI-8226 leukemia = tested on: RPMI-8226 leukemia
HL-60(TB) leukemia = tested on: HL-60(TB) leukemia
M19-MEL melanoma = tested on: M19-MEL melanoma
UACC-257 melanoma = tested on: UACC-257 melanoma
HCT-15 colon = tested on: HCT-15 colon

Measured: TGI

O=C(Nc1ccccc1-c1nn(CO)c(=S)n(CO)c1=O)C(F)(F)F
> 100 µM: MOLT-4 leukemia | OVCAR-3 ovarian | SF-295 CNS | HCC-2998 colon | LOX IMVI melanoma | ACHN renal | OVCAR-5 ovarian | EKVX NSCLC | DMS 273 small cell lung | KM12 colon | HOP-92 NSCLC | OVCAR-4 ovarian | CCRF-CEM leukemia | SNB-75 CNS | LXFL 529 NSCLC | HT29 colon | SK-MEL-28 melanoma | SK-MEL-5 melanoma | M14 melanoma | COLO 205 colon | SF-539 CNS | UO-31 renal | HCT-116 colon | SR leukemia | SK-OV-3 ovarian | OVCAR-8 ovarian | IGROV1 ovarian | RXF 393 renal | XF 498 CNS | CAKI-1 renal | HOP-62 NSCLC | SN12C renal | SF-268 CNS | K-562 leukemia | 786-0 renal | SW-620 colon | NCI-H460 lung | SK-MEL-2 melanoma | NCI-H23 lung | MALME-3M melanoma | SNB-19 CNS | SNB-78 CNS | NCI-H522 lung | U251 CNS | DMS 114 small cell lung | UACC-62 melanoma | A549 NSCLC | DLD-1 colon | NCI-H226 lung | TK-10 renal

CCN(CC)CCC(=O)NC1c2ccccc2Oc2c(C)cccc21 (configuration not stated)
> 100 µM: MOLT-4 leukemia | HCC-2998 colon | LOX IMVI melanoma | ACHN renal | OVCAR-5 ovarian | RPMI-8226 leukemia | EKVX NSCLC | DMS 273 small cell lung | OVCAR-4 ovarian | CCRF-CEM leukemia | HL-60(TB) leukemia | SNB-75 CNS | LXFL 529 NSCLC | HT29 colon | SK-MEL-28 melanoma | SK-MEL-5 melanoma | M14 melanoma | COLO 205 colon | SF-539 CNS | UO-31 renal | HCT-116 colon | SR leukemia | SK-OV-3 ovarian | OVCAR-8 ovarian | IGROV1 ovarian | M19-MEL melanoma | RXF 393 renal | XF 498 CNS | HOP-62 NSCLC | UACC-257 melanoma | SN12C renal | SF-268 CNS | K-562 leukemia | 786-0 renal | SW-620 colon | NCI-H460 lung | NCI-H23 lung | HCT-15 colon | SNB-19 CNS | SNB-78 CNS | U251 CNS | DMS 114 small cell lung | UACC-62 melanoma | A549 NSCLC | DLD-1 colon | NCI-H226 lung | TK-10 renal
